Patent publication US10336762B2 (priority 2017, dated 2019)
pEC50, pIC50: −log10 of the molar value. Counter-ions that a name gives are not always drawn. Like-named read-outs stand apart in the source and are kept apart here.

What was measured:
TNFα = assay: cells; format: cell-based, human; details: Homo sapiens, Monocyte, read-out: EC50 TNF
IRAK4 enzyme = IRAK4 enzyme (Homo sapiens (Human), UniProt Q9NWZ3); assay: biochemical; format: biochemical
[1] = LPS-stimulated human monocytes, TNFα content
[2] = IRAK4 enzyme, TR-FRET, 500 μM ATP

Sequence of IRAK4 enzyme (Q9NWZ3 whole entry): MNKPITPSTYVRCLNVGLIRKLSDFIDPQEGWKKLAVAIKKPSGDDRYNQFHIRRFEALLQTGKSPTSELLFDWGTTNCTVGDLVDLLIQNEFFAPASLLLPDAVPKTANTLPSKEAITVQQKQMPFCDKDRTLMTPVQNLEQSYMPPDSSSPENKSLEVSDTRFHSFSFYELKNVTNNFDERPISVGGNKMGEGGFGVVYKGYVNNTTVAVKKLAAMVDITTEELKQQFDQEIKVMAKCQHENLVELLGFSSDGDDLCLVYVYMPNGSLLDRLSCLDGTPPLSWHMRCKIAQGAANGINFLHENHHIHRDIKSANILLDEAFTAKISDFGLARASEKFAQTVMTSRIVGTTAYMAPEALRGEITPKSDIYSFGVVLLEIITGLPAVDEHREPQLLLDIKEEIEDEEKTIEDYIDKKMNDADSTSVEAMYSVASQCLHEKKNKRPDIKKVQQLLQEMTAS

Structure (SMILES)	pEC50 (TNFα; [1])	pIC50 (IRAK4 enzyme; [2])	pEC50 (TNFα)	pIC50 (IRAK4 enzyme)
CC(C)(O)[C@H](F)CNC(=O)c1cnc(-c2ccc3cc(C#N)cnn23)cc1N[C@H]1CC[C@H](NC(=O)C2CCOCC2)CC1 [Example 294, 6-(3-cyanopyrrolo[1,2-b]pyridazin-7-yl)-N-((R)-2-fluoro-3-hydroxy-3-methylbutyl)-4-(((1r,4R)-4-(tetrahydro-2H-pyran-4-carboxamido)cyclohexyl)amino)nicotinamide]	6.13	8.52		
CC(C)(O)[C@H](F)CNC(=O)c1cnc(-c2ccc3cc(C#N)cnn23)cc1NC12CCC(NC(=O)C(F)(F)F)(CC1)CC2 [Example 295, (R)-6-(3-cyanopyrrolo[1,2-b]pyridazin-7-yl)-N-(2-fluoro-3-hydroxy-3-methyl-butyl)-4-((4-(2,2,2-trifluoro-acetamido)bicyclo[2.2.2]octan-1-yl)amino) nicotinamide]	7.42	9.00		
CC(C)(C)C(=O)N[C@H]1CC[C@H](Nc2cc(-c3ccc4cc(C#N)cnn34)ncc2C(=O)NC[C@@H](F)C(C)(C)O)CC1 [Example 296, 6-(3-cyanopyrrolo[1,2-b]pyridazin-7-yl)-N-((R)-2-fluoro-3-hydroxy-3-methylbutyl)-4-(((1r,4R)-4-pivalamidocyclohexyl)amino)nicotinamide]	6.41	8.52		
CC(C)(O)[C@H](F)CNC(=O)c1cnc(-c2ccc3cc(C#N)cnn23)cc1N[C@H]1CC[C@H](NC(=O)C2CC2)CC1 [Example 297, 6-(3-cyanopyrrolo[1,2-b]pyridazin-7-yl)-4-(((1r,4R)-4-(cyclopropanecarbox-amido)cyclohexyl)amino)-N-((R)-2-fluoro-3-hydroxy-3-methylbutyl) nicotinamide]	7.10	9.00		
CC(C)C(=O)N[C@H]1CC[C@H](Nc2cc(-c3ccc4cc(C#N)cnn34)ncc2C(=O)NC[C@@H](F)C(C)(C)O)CC1 [Example 298, 6-(3-cyanopyrrolo[1,2-b]pyridazin-7-yl)-N-((R)-2-fluoro-3-hydroxy-3-methylbutyl)-4-(((1r,4R)-4-isobutyramidocyclohexyl)amino)nicotinamide]	6.67	8.70		
CCC(=O)N[C@H]1CC[C@H](Nc2cc(-c3ccc4cc(C#N)cnn34)ncc2C(=O)NC[C@@H](F)C(C)(C)O)CC1 [Example 299, 6-(3-cyanopyrrolo[1,2-b]pyridazin-7-yl)-N-((R)-2-fluoro-3-hydroxy-3-methyl-butyl)-4-(((1r,4R)-4-propionamidocyclohexyl)amino)nicotinamide]	6.89	9.00		
COC(=O)NC1CCC(NC(=O)c2cnc(-c3ccc4cc(C#N)cnn34)cc2N[C@H]2CC[C@H](NC(=O)OC)CC2)CC1 (stereo partly drawn) [Example 300, methyl ((1R,4r)-4-(6-(3-cyanopyrrolo[1,2-b]pyridazin-7-yl)-4-(((1r,4R)-4-((methoxycarbonyl)amino)cyclohexyl)amino)nicotinamido)cyclohexyl) carbamate]	7.12	9.00		
CC(=O)NC1CCC(NC(=O)c2cnc(-c3ccc4cc(C#N)cnn34)cc2N[C@H]2CC[C@H](NC(C)=O)CC2)CC1 (stereo partly drawn) [Example 301, N-((1s,4S)-4-acetamidocyclohexyl)-4-(((1r,4R)-4-acetamidocyclohexyl)amino)-6-(3-cyanopyrrolo[1,2-b]pyridazin-7-yl)nicotinamide]	5.85	8.70		
CC(C)(O)[C@H](F)CNC(=O)c1cnc(-c2ccc3cc(C#N)cnn23)cc1NC1CC1CO (stereo partly drawn) [Example 303, 6-(3-cyanopyrrolo[1,2-b]pyridazin-7-yl)-N-((R)-2-fluoro-3-hydroxy-3-methylbutyl)-4-((2-(hydroxymethyl)cyclopropyl)amino)nicotinamide]	7.59	> 9.00		
CC(C)(C)OC(=O)NC12CCC(Nc3cc(-c4ccc5cc(C#N)cnn45)ncc3C(=O)NC[C@@H](F)C(C)(C)O)(CC1)CC2 [Example 304, (R)-tert-butyl (4-((2-(3-cyanopyrrolo[1,2-b]pyridazin-7-yl)-5-((2-fluoro-3-hydroxy-3-methylbutyl)carbamoyl)pyridin-4yl)amino)bicyclo[2.2.2]octan-1-yl)carbamate]	6.17	8.40		
CC(C)(C)OC(=O)N[C@H]1CC[C@H](Nc2cc(-c3ccc4cc(C#N)cnn34)ncc2C(=O)NC[C@@H](F)C(C)(C)O)CC1 [Example 305, tert-butyl ((1R,4r)-4-((2-(3-cyanopyrrolo[1,2-b]pyridazin-7-yl-5-(((R)-2-fluoro-3-hydroxy-3-methylbutyl)carbamoyl)pyridin-4-yl)amino)cyclohexyl) carbamate]	6.47	9.00		
CC(=O)N[C@@H]1CC[C@@H](Nc2cc(-c3ccc4cc(C#N)cnn34)ncc2C(=O)NC[C@@H](F)C(C)(C)O)C1 [Example 306, 4-(((1R,3R)-3-acetamidocyclopentyl)amino)-6-(3-cyano-pyrrolo[1,2-b]pyridazin-7-yl)-N-((R)-2-fluoro-3-hydroxy-3-methylbutyl) nicotinamide]	6.34	8.52		
CC(=O)N[C@H]1CC[C@@H](Nc2cc(-c3ccc4cc(C#N)cnn34)ncc2C(=O)NC[C@@H](F)C(C)(C)O)C1 [Example 307, 4-(((1R,3S)-3-acetamidocyclopentyl)amino)-6-(3-cyano-pyrrolo[1,2-b]pyridazin-7-yl)-N-((R)-2-fluoro-3-hydroxy-3-methylbutyl) nicotinamide]	6.49	8.70		
CC(C)(O)[C@H](F)CNC(=O)c1cnc(-c2ccc3cc(C#N)cnn23)cc1N[C@@H]1CC[C@@H](N)C1 [Example 308, 4-(((1R,3R)-3-aminocyclopentyl)amino)-6-(3-cyano-pyrrolo[1,2-b]pyridazin-7-yl)-N-((R)-2-fluoro-3-hydroxy-3-methylbutyl) nicotinamide]	7.34	> 9.00		
CC(C)(O)[C@H](F)CNC(=O)c1cnc(-c2ccc3cc(C#N)cnn23)cc1N[C@@H]1CC[C@H](N)C1 [Example 309, 4-(((1R,3S)-3-aminocyclopentyl)amino)-6-(3-cyanopyrrolo[1,2-b]pyridazin-7-yl)-N-((R)-2-fluoro-3-hydroxy-3-methylbutyl)nicotinamide]	6.21	8.70		
CC(C)(O)[C@H](F)CNC(=O)c1cnc(-c2ccc3cc(C#N)cnn23)cc1N[C@H]1CC[C@@H](N)C1 [Example 310, 4-(((1S,3R)-3-aminocyclopentyl)amino)-6-(3-cyanopyrrolo[1,2-b]pyridazin-7-yl)-N-((R)-2-fluoro-3-hydroxy-3-methylbutyl)nicotinamide]	6.44	8.70		
COC(=O)NC12CCC(Nc3cc(-c4ccc5cc(C#N)cnn45)ncc3C(=O)NC[C@@H](F)C(C)(C)O)(CC1)CC2 [Example 311, (R)-methyl (4-((2-(3-cyano-pyrrolo[1,2-b]pyridazin-7-yl)-5-((2-fluoro-3-hydroxy-3-methylbutyl)carbamoyl)pyridin-4-yl)amino)bicyclo[2.2.2]octan-1-yl)carbamate]	7.82	> 9.00		
CC(=O)N[C@@H]1CC[C@H](Nc2cc(-c3ccc4cc(C#N)cnn34)ncc2C(=O)NC[C@@H](F)C(C)(C)O)C1 [Example 312, 4-(((1S,3R)-3-acetamidocyclopentyl)amino)-6-(3-cyano-pyrrolo[1,2-b]pyridazin-7-yl)-N-((R)-2-fluoro-3-hydroxy-3-methylbutyl) nicotinamide]	6.70	8.70		
CC(C)(O)[C@H](F)CNC(=O)c1cnc(-c2ccc3cc(C#N)cnn23)cc1N[C@H]1CC[C@H](NC(=O)C(F)(F)F)CC1 [Example 313, 6-(3-cyanopyrrolo[1,2-b]pyridazin-7-yl)-N-((R)-2-fluoro-3-hydroxy-3-methylbutyl)-4-(((1r,4R)-4-(2,2,2-trifluoroacetamido)cyclohexyl)amino) nicotinamide]	7.43	9.00		
COC(=O)N[C@H]1CC[C@H](Nc2cc(-c3ccc4cc(C#N)cnn34)ncc2C(=O)NC[C@@H](F)C(C)(C)O)CC1 [Example 314, methyl ((1R,4r)-4-((2-(3-cyanopyrrolo[1,2-b]pyridazin-7-yl)-5-(((R)-2-fluoro-3-hydroxy-3-methylbutyl)carbamoyl)pyridin-4-yl)amino)cyclo-hexyl)carbamate]	7.70	> 9.00		
CC(C)(O)[C@H](F)CNC(=O)c1cnc(-c2ccc3cc(C#N)cnn23)cc1N[C@H]1CC[C@H](NS(C)(=O)=O)CC1 [Example 315, 6-(3-cyanopyrrolo[1,2-b]pyridazin-7-yl)-N-((R)-2-fluoro-3-hydroxy-3-methylbutyl)-4-(((1r,4R)-4-(methylsulfonamido)cyclohexyl)amino)nicotinamide]	7.23	> 9.00		
CC(C)(O)[C@H](F)CNC(=O)c1cnc(-c2ccc3cc(C#N)cnn23)cc1N[C@H]1CC[C@H](N)CC1 [Example 316, 4-(((1r,4R)-4-aminocyclohexyl)amino)-6-(3-cyanopyrrolo[1,2-b]pyridazin-7-yl)-N-((R)-2-fluoro-3-hydroxy-3-methylbutyl)nicotinamide hydrochloride]			6.87	> 9.00
CC(=O)NC12CCC(Nc3cc(-c4ccc5cc(C#N)cnn45)ncc3C(=O)NC[C@@H](F)C(C)(C)O)(CC1)CC2 [Example 317, (R)-4-((4-acetamido-bicyclo[2.2.2]octan-1-yl)amino)-6-(3-cyano-pyrrolo[1,2-b]pyridazin-7-yl)-N-(2-fluoro-3-hydroxy-3-methylbutyl) nicotinamide]	7.96	> 9.00		
CC(C)(O)[C@H](F)CNC(=O)c1cnc(-c2ccc3cc(C#N)cnn23)cc1NC12CCC(N)(CC1)CC2 [Example 318, (R)-4-((4-amino-bicyclo[2.2.2]octan-1-yl)amino)-6-(3-cyano-pyrrolo[1,2-b]pyridazin-7-yl)-N-(2-fluoro-3-hydroxy-3-methylbutyl)nicotinamide]	7.64	> 9.00		
